Consider ten compounds from ChEMBL document CHEMBL1201862, “PubChem BioAssay data set” (2004).

Among the test systems are SK-MEL-2; LOX IMVI; MDA-MB-231; NCI/ADR-RES; COLO 205; OVCAR-8; OVCAR-3; SN12C; NCI-H460; SF-295; HOP-62; MDA-MB-435; OVCAR-5; HCT-15; CCRF-CEM; SF-268; UACC-257; MOLT-4; ACHN; KM12.
What all share (test): NCI tumour cell line growth inhibition, 48 h

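Compound exposure: 48 hours, 5 concentrations, 96-well plates. The concentration for 50% growth inhibition is given as GI50.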 Active and inactive are the calls of the source. Cut-off read from the data, not from the text of the source: active = GI50 up to about 1.1 µM and inactive = higher.

For `C/C1=C\CC[C@@]2(C)O[C@@H]2C[C@@H]2[C@H](C/C(C)=C/CC1)OC(=O)C21CCN=N1` (stereo not given in full), the GI50 is > 75 µM (inactive) with SK-MEL-2; 21 µM (inactive) in the assay on LOX IMVI; > 75 µM (inactive) with MDA-MB-231; > 75 µM (inactive) in the assay with NCI/ADR-RES; > 75 µM (inactive) with COLO 205; > 75 µM (inactive) in the assay with OVCAR-8. The GI50 was > 75 µM (inactive) in the assay with OVCAR-3; 37.8 µM (inactive) with SN12C; 39.6 µM (inactive) in the assay with NCI-H460; 32.4 µM (inactive) in the assay with SF-295; 27.9 µM (inactive) in the assay on HOP-62; > 75 µM (inactive) with MDA-MB-435. Also, the GI50 in the assay with OVCAR-5 was > 75 µM (inactive); with HCT-15, more than 75 µM; in the assay on CCRF-CEM, 15 µM (inactive); with SF-268, > 75 µM (inactive); in the assay with UACC-257, > 75 µM (inactive); with MOLT-4 it was 16 µM (inactive). Also, the GI50 with ACHN was 35.3 µM (inactive); with KM12 it was > 75 µM (inactive).
Regarding `O=C1C(Br)=CC2(C=C1Br)CCNC1=C2C2=NCCc3c[nH]c(c32)C1=O`, the GI50 with SK-MEL-2 is 0.183 µM (active); in the assay with LOX IMVI it was 0.0615 µM (active); in the assay with MDA-MB-231 it was 0.149 µM (active); in the assay on NCI/ADR-RES, 0.164 µM (active); with COLO 205, 0.0149 µM (active); with OVCAR-8, 0.0736 µM (active). Moreover, the GI50 in the assay on OVCAR-3 is 0.0249 µM (active); with SN12C, 0.146 µM (active); in the assay on NCI-H460 it was 0.548 µM (active); in the assay on SF-295, 1.25 µM (inactive); in the assay with HOP-62, 2.32 µM (inactive); with MDA-MB-435 it was 0.102 µM (active). The GI50 in the assay on OVCAR-5 was 0.69 µM (active); with HCT-15 it was 0.0605 µM; in the assay on CCRF-CEM it was 0.0198 µM (active); with SF-268 it was 0.347 µM (active); with UACC-257, 0.101 µM (active); in the assay with MOLT-4, 0.0315 µM (active). The GI50 with ACHN is 0.0962 µM (active); with KM12, 0.516 µM (active).
As for `Cc1n(CC(C)C)c2c([n+]1C)C(=O)c1ccccc1C2=O`, the GI50 in the assay with SK-MEL-2 is 0.13 µM (active); in the assay on LOX IMVI, 0.0746 µM (active); in the assay with MDA-MB-231, 0.0486 µM (active); with NCI/ADR-RES, 2.43 µM (inactive); in the assay with COLO 205, < 0.0152 µM (active); in the assay with OVCAR-8, 0.0265 µM (active). The GI50 in the assay with OVCAR-3 is < 0.01 µM (active); with SN12C, 0.0255 µM (active); in the assay on NCI-H460 it was 0.135 µM (active); with SF-295, 0.415 µM (active); in the assay with HOP-62, 0.131 µM (active); in the assay on MDA-MB-435, 0.143 µM (active). The GI50 in the assay with OVCAR-5 is 0.244 µM (active); in the assay with HCT-15, 0.478 µM; in the assay on CCRF-CEM, 0.122 µM (active); with SF-268, < 0.0169 µM (active); with UACC-257, 0.0513 µM (active); in the assay with MOLT-4, 0.0478 µM (active). Moreover, the GI50 in the assay with ACHN was 0.432 µM (active); in the assay on KM12, 0.205 µM (active).
For the compound `COc1cc2c(cc1C)NC(=O)/C2=C/c1c(Cl)n(C)c2ccccc12`, the GI50 was 9.66 µM (inactive) with SK-MEL-2; 7.69 µM (inactive) with LOX IMVI; 12.9 µM (inactive) in the assay on MDA-MB-231; 3.61 µM (inactive) in the assay on NCI/ADR-RES; 5.11 µM (inactive) in the assay on COLO 205; 12.5 µM (inactive) in the assay on OVCAR-8. For the same compound, the GI50 in the assay with OVCAR-3 was 4.11 µM (inactive); with SN12C it was 12.8 µM (inactive); with NCI-H460, 6.71 µM (inactive); in the assay on SF-295, 7.66 µM (inactive); with HOP-62, 11.1 µM (inactive); with MDA-MB-435, 1.71 µM (inactive). Besides, the GI50 with OVCAR-5 is 12.5 µM (inactive); in the assay with HCT-15, 3.98 µM; with CCRF-CEM, 1.9 µM (inactive); in the assay on SF-268, 4.48 µM (inactive); in the assay on UACC-257, 11.9 µM (inactive); with MOLT-4, 2.15 µM (inactive). The GI50 is 10.3 µM (inactive) with ACHN and 3.34 µM (inactive) with KM12.
Consider `c1cc2nnc1SCCCSc1ccc(nn1)SCCCSc1ccc(nn1)SCCCS2`, for which the GI50 in the assay on SK-MEL-2 is 83.8 µM (inactive); with LOX IMVI, > 100 µM (inactive); in the assay with MDA-MB-231 it was 97.3 µM (inactive); with NCI/ADR-RES it was > 100 µM (inactive); in the assay with COLO 205, > 100 µM (inactive); in the assay with OVCAR-8 it was > 100 µM (inactive). The GI50 is > 100 µM (inactive) with OVCAR-3; > 100 µM (inactive) in the assay on SN12C; > 100 µM (inactive) in the assay on NCI-H460; > 100 µM (inactive) in the assay with SF-295; 39.6 µM (inactive) with HOP-62; > 100 µM (inactive) in the assay on MDA-MB-435. Besides, the GI50 was > 100 µM (inactive) in the assay with OVCAR-5; more than 100 µM with HCT-15; > 100 µM (inactive) in the assay with CCRF-CEM; 92 µM (inactive) in the assay with SF-268; > 100 µM (inactive) in the assay on UACC-257; > 100 µM (inactive) in the assay on MOLT-4. In addition, the GI50 in the assay with ACHN and in the assay with KM12 was > 100 µM (inactive) in each case.
`CC1OC(OC2C(O)COC(OC3C(C)OC(OC4C(OC(=O)[C@]56CCC(C)(C)C[C@@H]5C5=CCC7[C@@]8(C)C[C@H](O)[C@H](OC9OC(CO)C(O)C(O)C9O)[C@@](C)(CO)[C@@H]8CC[C@@]7(C)[C@]5(C)CC6)OCC(O)C4O)C(O)C3OC3OCC(O)(CO)C3O)C2O)C(O)C(O)C1O` (stereo not given in full): the GI50 in the assay on SK-MEL-2 is 13.8 µM (inactive); in the assay on LOX IMVI, 19.8 µM (inactive); in the assay with MDA-MB-231, 12.6 µM (inactive); in the assay with NCI/ADR-RES, 18.8 µM (inactive); in the assay with COLO 205, 2.51 µM (inactive); in the assay with OVCAR-8 it was 18.5 µM (inactive). For the same compound, the GI50 was 18.9 µM (inactive) with OVCAR-3; 4.3 µM (inactive) in the assay on SN12C; 18.7 µM (inactive) with NCI-H460; 13.6 µM (inactive) in the assay on SF-295; 15.1 µM (inactive) in the assay with HOP-62; 17.4 µM (inactive) in the assay on MDA-MB-435. The GI50 in the assay with OVCAR-5 was 8.93 µM (inactive); in the assay with HCT-15, 16.1 µM; in the assay on CCRF-CEM, 18.5 µM (inactive); with SF-268, 10.2 µM (inactive); in the assay with UACC-257 it was 9.77 µM (inactive); in the assay with MOLT-4, 15.7 µM (inactive). Besides, the GI50 in the assay on ACHN is 12.5 µM (inactive); with KM12, 18.8 µM (inactive).
With `Oc1ccc(Cn2c(-c3ccc(O)cc3)nc3ccccc32)cc1`, the GI50 in the assay on SK-MEL-2, in the assay on LOX IMVI, with MDA-MB-231, in the assay on NCI/ADR-RES, with COLO 205 and with OVCAR-8 was > 100 µM (inactive) in each case. The GI50 in the assay on OVCAR-3, with SN12C, in the assay on NCI-H460, with SF-295, with HOP-62 and in the assay with MDA-MB-435 was > 100 µM (inactive) each time. Moreover, the GI50 with OVCAR-5 was > 100 µM (inactive); in the assay with HCT-15 it was more than 100 µM; in the assay on CCRF-CEM, > 100 µM (inactive); with SF-268, > 100 µM (inactive); in the assay with UACC-257, > 100 µM (inactive); with MOLT-4 it was > 100 µM (inactive). Besides, the GI50 in the assay on ACHN and in the assay on KM12 was > 100 µM (inactive) throughout.
Take `C[C@@H]1S[C@H](c2ccccc2F)N2Cc3ccccc3N=C12`: the GI50 is 16.8 µM (inactive) with SK-MEL-2; 18.5 µM (inactive) with LOX IMVI; 35 µM (inactive) in the assay with MDA-MB-231; 24.7 µM (inactive) in the assay on NCI/ADR-RES; 30.8 µM (inactive) in the assay on COLO 205; 28.4 µM (inactive) in the assay with OVCAR-8. The GI50 with OVCAR-3 was 34.4 µM (inactive); in the assay on SN12C, 18.7 µM (inactive); with NCI-H460 it was 30.9 µM (inactive); with SF-295, 26.2 µM (inactive); in the assay with HOP-62 it was 29.8 µM (inactive); in the assay with MDA-MB-435 it was 23.5 µM (inactive). The GI50 was 28.2 µM (inactive) in the assay with OVCAR-5; 28.5 µM with HCT-15; 30.6 µM (inactive) in the assay with CCRF-CEM; 28.6 µM (inactive) in the assay on SF-268; 28.6 µM (inactive) in the assay on UACC-257; 18.2 µM (inactive) in the assay with MOLT-4. Also, the figures for the GI50 in the assay with ACHN and in the assay on KM12 were 31.4 µM (inactive) and 27.3 µM (inactive), respectively.
Take `CCn1c(SCC(=O)N/N=C2\SCC(=O)N2c2ccc(C)cc2)nc2ccccc2c1=O`: the GI50 with SK-MEL-2 is 28.9 µM (inactive); in the assay with LOX IMVI, 25.2 µM (inactive); in the assay on MDA-MB-231, 20.2 µM (inactive); in the assay with NCI/ADR-RES, 19.8 µM (inactive); in the assay on COLO 205, 50.9 µM (inactive); with OVCAR-8 it was 17 µM (inactive). In addition, the GI50 in the assay with OVCAR-3 is 21.4 µM (inactive); in the assay with SN12C, 27 µM (inactive); in the assay with NCI-H460, 24.7 µM (inactive); in the assay with SF-295, 18.6 µM (inactive); in the assay with HOP-62, 21.7 µM (inactive); in the assay with MDA-MB-435 it was 21.2 µM (inactive). Moreover, the GI50 was 20.5 µM (inactive) in the assay with OVCAR-5; 32.1 µM in the assay on HCT-15; 34 µM (inactive) in the assay with CCRF-CEM; 20.3 µM (inactive) in the assay on SF-268; 15.7 µM (inactive) in the assay on UACC-257; 25.9 µM (inactive) with MOLT-4. The GI50 in the assay with ACHN is 18.6 µM (inactive); in the assay on KM12, 19.4 µM (inactive).
For `COc1c(O)c(OC)c2oc(-c3ccc(O)cc3)c(OC)c(=O)c2c1O`, the GI50 in the assay on SK-MEL-2 is 42.5 µM (inactive); with LOX IMVI, 30.9 µM (inactive); in the assay on MDA-MB-231, 42.5 µM (inactive); in the assay on NCI/ADR-RES, 61 µM (inactive); in the assay with COLO 205 it was 99.5 µM (inactive); in the assay with OVCAR-8, 38 µM (inactive). For the same compound, the GI50 with OVCAR-3 is 14.8 µM (inactive); with SN12C, 70.6 µM (inactive); in the assay on NCI-H460, 45.7 µM (inactive); with SF-295, > 100 µM (inactive); in the assay on HOP-62 it was 24.4 µM (inactive); in the assay with MDA-MB-435, 33.6 µM (inactive). Also, the GI50 was > 100 µM (inactive) in the assay on OVCAR-5; 28.1 µM in the assay with HCT-15; 37.5 µM (inactive) in the assay with CCRF-CEM; 8.73 µM (inactive) in the assay with SF-268; 76.2 µM (inactive) in the assay on UACC-257; 57 µM (inactive) in the assay with MOLT-4. Also, the GI50 with ACHN was 33.6 µM (inactive); with KM12 it was 88.5 µM (inactive).
